Patent US20080171706A1, “Anti-Adhesive Compounds to Prevent and Treat Bacterial Infections” (priority 2004, published 2008)

Legend:
Test in all cases: biochemical
[1] = molecular target: T1, FimHtrJ96 (Escherichia coli, UniProt P08191); format: binding, uropathogenic E. coli strain J96; details: for Kd: Table 3, [3H]-mannose displacement assay (mannose measured directly), read-out: KD J96; for ΔG° J96: Table 3, calculated from KD
T1 construct: coding for the lectin domain of FimH (residues 1-158) with a C-terminal 6-histidine tag; made in house; host or cells: E. coli HB101 (lacking the fim operon), periplasmic extract, plasmid pPKL241
T1 sequence (P08191 22-179): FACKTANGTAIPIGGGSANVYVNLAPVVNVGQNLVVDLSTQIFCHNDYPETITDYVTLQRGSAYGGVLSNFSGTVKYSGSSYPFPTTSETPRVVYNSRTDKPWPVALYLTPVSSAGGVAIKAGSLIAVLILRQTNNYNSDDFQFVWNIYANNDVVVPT
Experimental: To measure the dissociation constant for FimH:alkyl or aryl-mannoside binding, two different binding assays were developed. The first binding assay uses [^3H]-mannose. The amount of radioactively labeled mannose bound to FimHtrJ96 was measured at six different concentrations of [^3H]-mannose, and a hyperbolic curve fitted to the resulting data (FIG. 1A). FimHtrJ96 corresponds to the carbohydrate (mannose) binding domain of FimH from the uropathogenic E. coli strain J96. The dissociation equilibrium constant was determined from this graph at the concentration of mannose […], which corresponds to occupation of half of the binding sites.
Surface Plasmon Resonance measurements were performed on a Biacore3000™. In a first experiment, the kinetic constants and maximal binding were determined for the FimH-antibody interaction. Next, a fixed concentration of FimH (close to the KD of the FimH-antibody interaction) in combination with varying concentrations of carbohydrate, were used to determine the dissociation equilibrium constant of the FimH-saccharide interaction in a competition experiment. Every measurement was repeated at least twice, including testing the variation between different protein and saccharide batches.
To eliminate the possibility of different binding strength for full length FimH and FimHtrJ96, the binding of alpha-D-mannose to FimC:FimH complex was also measured. […] The inhibition of [^3H]-mannose binding was used in a displacement assay to determine the dissociation constant for a synthetic butyl mannoside by measuring the amount of [^3H]-mannose bound to the protein in the presence of increasing amounts of the inhibitor (FIG. 1B). […] To investigate the effect of sequential addition of methyl groups to the O1 oxygen of D-mannose, a series of alkyl mannosides were synthesized and the dissociation constants determined using the [^3H]-mannose displacement assay and by surface plasmon resonance (Table 1).
Surface Plasmon Resonance measurements were performed on a Biacore3000™. The Fab fragments of a monoclonal antibody against FimH were covalently immobilised via lysines at 1000 Resonance Units (1000 pg ligand/mm^2) in flowcell Fc2 on a CM5 biasensor chip (BIAapplications Handbook, Biacore AB, Uppsala, Sweden). Immobilisation buffer was 100 mM NaAc pH 5.0 with 100 mM NaCl. The reference flowcell Fc1 was left blank.
Binding of FimH to the immobilized antibody was measured with a Biacore 3000 instrument in running buffer (phosphate buffered saline with 0.005% surfactant P20 and 3 mM EDTA), on both flowcells Fc1 and Fc2 simultaneously, at a flow rate of 30 μl/min and at 25° C. Complete dissociation of FimH was done with running buffer before starting a new binding cycle. For all measurements, the association time was 3 minutes, the dissociation time was 30 min. All binding cycles were performed in duplicate, including a zero concentration cycle of FimH (injection of running buffer).
In a first experiment, the kinetic constants, ka and kd, and the maximal binding Rmax, were determined for the FimH-antibody interaction (FimH concentrations (nM): 2000, 1000, 500, 250, 125, 62.5, 31.25, 15.625, 7.818, 3.911, 1.957, 0). All analyses were performed with the BIAeval software. A Langmuir binding isotherm with a 1:1 stoichiometry was fitted to the data, from which the kinetic constants and maximal binding were obtained.
In the next experiment, samples containing a fixed concentration of FimH (close to the KD of the FimH-antibody interaction) in combination with varying concentrations of saccharide, were used to determine the dissociation constant of the FimH-saccharide interaction in a competition experiment. First, ten-fold dilutions of the saccharide solution were used to determine the concentration range for binding of the saccharide to FimH.

[2] = molecular target: T2, FimHtrF18 (Escherichia coli, UniProt P08191, N91S/S99N/V48A); format: binding, E. coli fecal (F18) strain; details: for Kd: Table 3, [3H]-mannose displacement assay (mannose measured directly), read-out: KD F18; for ΔG° F18: Table 3, calculated from KD
T2 construct: coding for the lectin domain of FimH (residues 1-158) with a C-terminal 6-histidine tag; made in house; host or cells: E. coli HB101 (lacking the fim operon), periplasmic extract, plasmid pPKL316
T2 sequence (P08191 22-179 V48A/N91S/S99N): as the sequence (P08191 22-179) above, with V27A, N70S, S78N counted along it
Experimental: (§1) To investigate if these variations reflect differences in sugar binding at the molecular level, the dissociation constants of a series of mannosides for the FimH lectin domain from a fecal (F18) and from a UPEC (Cl#4) strain were determined. […] For comparison, binding to FimHtrJ96 was also investigated. Both F18 and Cl#4 FimH lectin domains were cloned, expressed, and purified in the same way as FimHtrJ96 (Schembri et al., 2000). These two lectin domains differ from the lectin domain of FimHJ96 by substitutions Val27Ala, Asn70Ser and Ser78Asn. In addition, FimHCl#4 differs from the other two variants by a Gly73Glu substitution. […] Five different tri-mannosides corresponding to high-mannose substructures were synthesized, and their binding to FimHtrJ96, FimHtrF18 and FimHtrCl#4 measured using our [^3H]-mannose displacement assay (Table 3). Alpha-D-mannose binding was first directly measured for each of the FimH variants.
(§2) [^3H]alpha-D-mannose was obtained from Amersham. […] Syntheses of tri-mannosides was as reported earlier by Oscarson and co-workers (1993). Weighed amounts of tri-mannosides were dissolved in double distilled water to give stock solutions of 0.87 M man-(1,2)-man-(1,2)-man, 0.25 M man-(1,2)-man-(1,3)-man, 0.27 M man-(1,2)-man-(1,6)-man, 0.30 M man-(1,3)-man-(1,6)-man, 0.13 M man-(1,6)-man-(1,6)-man. Similarly, alkyl mannosides were dissolved in double distilled water to give stock solutions of 100 mM methyl mannoside, 59.8 mM ethyl mannoside, 45.9 mM propyl mannoside, 51.9 mM butyl mannoside, 17.3 mM pentyl mannoside, 20.8 mM hexyl mannoside, 15.3 mM heptyl mannoside, 15.2 mM octyl mannoside. pNPalphaMan and MeUmbalphaMan (6 mg each) were dissolved in 20 μl DMSO and diluted to 20 mM using double distilled water. Binding experiments were performed using six different concentrations of [^3H]-alpha-D-mannose (final concentrations 43.5 μM, 29.0 μM, 19.3 μM, 12.9 μM, 8.6 μM, 5.7 μM). FimHtrJ96 obtained by growing bacteria in minimal medium was used in all binding experiments. 180 μl protein at a concentration of about 500 nM was mixed with 20 μl of the radioactive ligand, and incubated at 37° C. for 20 min. To separate free ligand from bound, the mixture was rapidly filtrated through a Protran BA 85 Cellulose-nitrate filter (Schleicher & Schuell, Dassel, Germany), and washed once with 1 ml of ice-cold 1× PBS (phosphate buffered saline). Filter-bound radioactivity was measured by scintillation spectrometry within 24 hours. The displacement experiments were performed using six different concentrations (final concentrations in the range 0.0˜43.5 μM) of the inhibitor, in the presence of 43.5 μM [^3H]-alpha-D-mannose. 20 μl radioactive ligand, 20 μl inhibitor at decreasing concentrations, and 160 μl protein (500 nM) were mixed, and the experiments performed as above. All experiments were performed in duplicates. For determination of KD for α-D-mannose, a hyperbolic curve (y=P1x/(P2+x), where P2=KD) was fitted to the data. For the displacement experiments, the curve y=P1/(P2+x), where P2 is the concentration of the inhibitor displacing 50% of the labelled ligand, [I]0.5 was used instead. To calculate the inhibitor dissociation constant (KI) the Cheng & Prusoff equation (KI=[I]0.5/([L]/KL+1); KL is the constant of dissociation for the ligand) (Cheng and Prusoff, 1973), was used when both the concentration of the radioactive ligand (L) and the displacing agent (I) are in excess over the protein (LT>>PT;IT>>PT, T indicates total concentration). […] A plot of IT/((1−Y)*(LT/KL)−Y) against 1/Y gives a straight line with a slope of KI.

[3] = molecular target: T3, FimHtrCl#4 (Escherichia coli, UniProt P08191, G94E/N91S/S99N/V48A); format: binding, E. coli UPEC (Cl#4) strain; details: for Kd: Table 3, [3H]-mannose displacement assay (mannose measured directly), read-out: KD CI#4; for ΔG° CI#4: Table 3, calculated from KD
T3 construct: coding for the lectin domain of FimH (residues 1-158) with a C-terminal 6-histidine tag; made in house; host or cells: E. coli HB101 (lacking the fim operon), periplasmic extract, plasmid pMAS146
T3 sequence (P08191 22-179 V48A/N91S/G94E/S99N): as the sequence (P08191 22-179) above, with V27A, N70S, G73E, S78N counted along it
Experimental: as §1, §2

| SMILES | Kd [1] [µM] | ΔG° J96 [1] [kcal/mol] | Kd [2] [µM] | ΔG° F18 [2] [kcal/mol] | Kd [3] [µM] | ΔG° CI#4 [3] [kcal/mol] |
| --- | --- | --- | --- | --- | --- | --- |
| OC[C@H]1O[C@H](O[C@@H]2[C@H](O)[C@@H](OC[C@H]3OC(O)[C@@H](O)[C@@H](O)[C@@H]3O)O[C@H](CO)[C@H]2O)[C@@H](O)[C@@H](O)[C@@H]1O (stereo partly drawn) [man-(1,3)-man-(1,6)-man] | 0.485 | -8.6 | 0.73 | -8.7 | 1.03 | -8.5 |
| OC[C@H]1O[C@H](OC[C@H]2O[C@H](OC[C@H]3OC(O)[C@@H](O)[C@@H](O)[C@@H]3O)[C@@H](O)[C@@H](O)[C@@H]2O)[C@@H](O)[C@@H](O)[C@@H]1O (stereo partly drawn) [man-(1,6)-man-(1,6)-man] | 1.4 | -8.3 | 5.9 | -7.4 | 7.5 | -7.3 |
